Reference: patent US9145354B2, “Pharmaceutical compounds” (priority 2011, dated 2015)
Counter-ions that a name gives are not always drawn. Like-named read-outs stand apart in the source and are kept apart here.

Target: full length NS3/4a (Hepatitis C virus genotype 1b (isolate BK) (HCV), UniProt P26663)
Test: NS3 Protease Assay (Example A), FRET-based
Format: biochemical
Method in brief: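 Full-length NS3/4a, made in-house, with an NS4A/B-derived peptide substrate carrying QXL520 quencher and 5-FAMsp fluorophore. Buffer 50 mM Tris pH8, 20 mM DTT, 1% CHAPS, 10% glycerol, 5% DMSO. Fluorescence followed 30 min at room temperature; IC50 from initial rates of replicate curves.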

[1] = HCV NS3 protease assay, full length NS3/4a, read-out: Assay A IC50 (μM) average
[2] = read-out: IC50 against the protease activity of the full length NS3/4a
[3] = stated as IC50 less than 30 μM or at least 40% inhibition at a concentration of 100 μM, read-out: IC50 against the protease activity of the full length NS3/4a

full length NS3/4a, sequence (P26663 1027-1657): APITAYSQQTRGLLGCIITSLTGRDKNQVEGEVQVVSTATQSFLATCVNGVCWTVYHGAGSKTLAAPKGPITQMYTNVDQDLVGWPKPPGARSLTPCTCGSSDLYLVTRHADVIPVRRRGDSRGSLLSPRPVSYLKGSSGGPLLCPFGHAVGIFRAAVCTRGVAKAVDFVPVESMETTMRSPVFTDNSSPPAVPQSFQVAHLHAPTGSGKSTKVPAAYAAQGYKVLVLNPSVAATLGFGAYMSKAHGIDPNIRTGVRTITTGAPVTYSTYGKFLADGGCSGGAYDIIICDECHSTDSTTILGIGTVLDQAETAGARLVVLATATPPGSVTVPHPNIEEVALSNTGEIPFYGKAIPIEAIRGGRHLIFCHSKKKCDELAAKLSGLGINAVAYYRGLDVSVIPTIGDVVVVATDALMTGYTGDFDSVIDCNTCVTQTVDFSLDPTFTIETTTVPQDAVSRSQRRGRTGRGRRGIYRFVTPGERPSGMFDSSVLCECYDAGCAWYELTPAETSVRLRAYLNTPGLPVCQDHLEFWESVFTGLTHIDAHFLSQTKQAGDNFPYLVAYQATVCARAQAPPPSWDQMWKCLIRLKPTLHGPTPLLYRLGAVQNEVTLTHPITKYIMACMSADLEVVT

Compound	IC50 [1] [µM]	IC50 [2] [µM]	further results
CC[C@@H](NCC(C)(C)C(N)=O)c1ccc(Cl)c(C(=O)c2cccnc2)c1F [Example 172, 3-{(R)-1-[4-Chloro-2-fluoro-3-(pyridine-3-carbonyl)-phenyl]-propylamino}-2,2-dimethyl-propionamide]	1.6	1 to 5	
CC[C@H](NCCO)c1ccc(Cl)c(C(=O)c2ccc(N)nc2)c1F [Example 173, 2-{[(1S)-1-{3-[(6-aminopyridin-3-yl)carbonyl]-4-chloro-2-fluorophenyl}propyl]-amino}ethan-1-ol]	0.13	< 1	
CC[C@@H](NC[C@@H](C)C(N)=O)c1ccc(Cl)c(C(=O)c2cccnc2)c1F.Cl [Example 174, 2R)-3-{[(1R)-1-{4-chloro-2-fluoro-3-[(pyridin-3-yl)carbonyl]phenyl}-propyl]amino}-2-methylpropanamide HCl (1:1]			Assay A % inhibition average: 47% @ 30 uM; IC50 [3]: < 30 µM
CC[C@@H](NCCCO)c1ccc(Cl)c(C(=O)c2ccccc2)c1F [Example 181, 3-{[(1R)-1-(3-benzoyl-4-chloro-2-fluorophenyl)propyl]-amino}propan-1-ol]	0.26		
CC[C@H](NCCCO)c1ccc(Cl)c(C(=O)c2ccccc2)c1F [Example 182, 3-{[(1S)-1-(3-benzoyl-4-chloro-2-fluorophenyl)propyl]-amino}propan-1-ol]	0.038		
CCC(NC1(C(N)=O)CC1)c1ccc(Cl)c(C(=O)c2ccccc2)c1F (centres unmarked) [Example 184, 1-[1-(3-Benzoyl-4-chloro-2-fluorophenyl)-propylamino]-cyclopropanecarboxylic acid amide.HCl]			inhibition at 10 µM: 22%
NC(=O)CCN[C@@H](c1ccc(Cl)c(C(=O)c2cnc(N)cn2)c1F)C1CC1 [Example 185, 3-{[(R)-{3-[(5-aminopyrazin-2-yl)carbonyl]-4-chloro-2-fluorophenyl}(cyclo-propyl)methyl]amino}-propanamide]	0.6		
CC[C@@H](N[C@@H](C)CC(N)=O)c1ccc(Cl)c(C(=O)c2ccc(CO)cc2)c1F [Example 186, (3S)-3-{[(1R)-1-(4-chloro-2-fluoro-3-{[4-(hydroxymethyl)-phenyl]carbonyl}phenyl)propyl]amino}-butanamide]	0.11		
CC[C@@H](N[C@H](C)CC(N)=O)c1ccc(Cl)c(C(=O)c2ccc(CO)cc2)c1F [Example 187, (3R)-3-{[(1R)-1-(4-chloro-2-fluoro-3-{[4-(hydroxymethyl)-phenyl]-carbonyl}phenyl)-propyl]amino}butanamide]	0.66		
CC[C@@H](N[C@@H](C)CC(N)=O)c1ccc(Cl)c(C(=O)c2cccc(CO)c2)c1F [Example 188, (3S)-3-{[(1R)-1-(4-chloro-2-fluoro-3-{[3-(hydroxymethyl)-phenyl]carbonyl}phenyl)-propyl]amino}butanamide]	0.14		
CC[C@@H](N[C@H](C)CC(N)=O)c1ccc(Cl)c(C(=O)c2cccc(CO)c2)c1F [Example 189, (3R)-3-{[(1R)-1-(4-chloro-2-fluoro-3-{[3-(hydroxymethyl)-phenyl]-carbonyl}phenyl)-propyl]amino}butanamide]	0.54		
C[C@H](CC(N)=O)N[C@@H](c1ccc(Cl)c(C(=O)c2ccc(N)c(C#N)c2)c1F)C1CC1 [Example 190, (3R)-3-{[(R)-{3-[(4-amino-3-cyanophenyl)carbonyl]-4-chloro-2-fluorophenyl}(cyclopropyl)methyl]amino}butanamide]	0.37		IC50 [3]: < 30 µM
CC[C@@H](N)c1ccc(OC)c(C(=O)c2ccc(F)cc2)c1F [Example 191, (1R)-1-{2-fluoro-3-[(4-fluorophenyl)carbonyl]-4-methoxyphenyl}-propan-1-amine]	1.1	1 to 5	
CC[C@@H](N[C@@H](C)CC(N)=O)c1ccc(Cl)c(C(=O)c2cnc(NC)cn2)c1F [Example 192, (3S)-3-{[(1R)-1-(4-chloro-2-fluoro-3-{[5-(methylamino)-pyrazin-2-yl]carbonyl}-phenyl)propyl]-amino}butanamide]	0.63	< 1	
C[C@@H](CC(N)=O)N[C@@H](c1ccc(Cl)c(C(=O)c2cnc(N)cn2)c1F)C1CC1 [Example 194, (3S)-3-{[(R)-{3-[(5-aminopyrazin-2-yl)carbonyl]-4-chloro-2-fluorophenyl}(cyclo-propyl)methyl]amino}-butanamide]			inhibition at 0.3 µM (@ 0.3 uM): 28%
C[C@H](CC(N)=O)N[C@@H](c1ccc(Cl)c(C(=O)c2cnc(N)cn2)c1F)C1CC1 [Example 195, (3R)-3-{[(R)-{3-[(5-aminopyrazin-2-yl)carbonyl]-4-chloro-2-fluorophenyl}(cyclo-propyl)methyl]amino}-butanamide]	6.2		IC50 [3]: < 30 µM
COc1ccc([C@H](N)C2CC2)c(F)c1C(=O)c1ccc(F)cc1 [Example 196, (R)-cyclopropyl({2-fluoro-3-[(4-fluorophenyl)carbonyl]-4-methoxyphenyl})methanamine]	2.3	1 to 5	
CC[C@@H](N)c1ccc(Cl)c(C(=O)c2ccc(N)nn2)c1F [Example 197, 6-({3-[(1R)-1-Aminopropyl]-6-chloro-2-fluorophenyl}carbonyl)pyridazin-3-amine]			inhibition at 10 µM: 45%; IC50 [3]: < 30 µM
CC[C@@H](N)c1ccc(OC)c(C(=O)c2cccc(F)c2)c1F [Example 198, (1R)-1-{2-fluoro-3-[(3-fluorophenyl)carbonyl]-4-methoxyphenyl}propan-1-amine]	2.4	1 to 5	
CC[C@@H](N[C@H](C)CC(N)=O)c1ccc(OC)c(C(=O)c2ccc(F)cc2)c1F [Example 199, (3R)-3-{[(1R)-1-{2-fluoro-3-[(4-fluorophenyl)carbonyl]-4-methoxyphenyl}propyl]amino}butanamide]			inhibition at 100 µM (@ 100 uM): 32%
CC[C@@H](N[C@@H](C)CC(N)=O)c1ccc(OC)c(C(=O)c2ccc(F)cc2)c1F [Example 200, (3S)-3-{[(1R)-1-{2-fluoro-3-[(4-fluorophenyl)carbonyl]-4-methoxyphenyl}propyl]amino} butanamide]	0.078	< 1	
COc1ccc([C@H](N)C2CC2)c(F)c1C(=O)c1cccc(F)c1 [Example 201, (R)-cyclopropyl({2-fluoro-3-[(3-fluorophenyl)carbonyl]-4-methoxyphenyl})methanamine]	3	1 to 5	
C[C@H](CC(N)=O)N[C@@H](c1ccc(Cl)c(C(=O)c2ccc(N)c(Cl)c2)c1F)C1CC1 [Example 202, (3R)-3-{[(R)-{3-[(4-amino-3-chlorophenyl)carbonyl]-4-chloro-2-fluorophenyl}(cyclopropyl)methyl]amino}butanamide]	0.31		
Cc1cc(C(=O)c2c(Cl)ccc([C@H](N[C@H](C)CC(N)=O)C3CC3)c2F)ccc1N [Example 203, (3R)-3-{[(R)-{3-[(4-amino-3-methylphenyl)carbonyl]-4-chloro-2-fluorophenyl}(cyclopropyl)methyl]amino}butanamide]	0.27		
CC[C@@H](N)c1ccc(Cl)c(C(=O)c2cccc(O)c2)c1F [Example 204, 3-({3-[(1R)-1-aminopropyl]-6-chloro-2-fluorophenyl}-carbonyl)phenol]	0.17		
CC[C@@H](N[C@@H](C)CC(N)=O)c1ccc(Cl)c(C(=O)c2ccnc(N)c2)c1F [Example 205, (3S)-3-{[(1R)-1-{3-[(2-aminopyridin-4-yl)carbonyl]-4-chloro-2-fluorophenyl}propyl]amino} butanamide]	0.19		
